# Columns and labels:
# [1] = system: sciatic nerve ligation or chronic constriction injury (CCI) model; experiment: von Frey filament test (mechanical allodynia), CCI model, subcutaneous injection; type: in vivo, rat
# Description: (§1) Male Wistar rats with a body weight between 250 and 300 g were kept in standard laboratory conditions (12 h light/dark cycles, temperature 21° C.). Four groups were formed and treated once a day with a composition comprising an active ingredient: • Group 1 was administered 10% of LGP10-16. • Group 2 was administered 25% of LGP10-16. • Group 3 was administered 100% of LGP10-16. • A control group 4 was administered saline solution. Each group consisted of 15 rats.
# The sciatic nerve ligation or chronic constriction injury (CCI) model for as described by Bennett and Xie was used. The sciatic nerve ligation model generates a peripheral nerve injury that causes the appearance of mechanical and thermal hyperalgesia, mechanical allodynia and sometimes signs of spontaneous pain can be observed, by the spontaneous 5 elevation of the paw. All these symptoms appear one week after nerve ligation and can last more than two months. The added value of the model is that each animal can be its own control, since the contralateral paw, not being injured, reflects normal values. […]
# [2] = system: mouse vas deferens; experiment: mouse vas deferens preparation, inhibition of contractile activity
# Description: In a second step, the effect of different concentrations of LGP10-16 on preparations of mouse vas deferens and guinea-pig ileum LMMP was studied.
# After adding a concentration of the drug to the organ bath, it is left for 9 minutes to test its effect, after which the preparation is washed. At the end of the first concentration-response curve (left bars), it is left for 90 mins and the second curve is created (right bars).
# [3] = system: A delta nerve fibres; experiment: isolated nerve fibre model (electrophysiology of A delta fibres)
# Description: In a first step, an isolated nerve fibre model was used and the effect of a 25% dilution (nutrient solution) of LGP10-16 on the different electrophysiological variables of the A delta nerve fibres was evaluated. The stimulated fibres from the A delta type correspond to nociceptive sensory fibres. 250 μl of LGP10-16 and 750 μl of nutrient solution were used in this test.
# [4] = system: sciatic nerve ligation or chronic constriction injury (CCI) model; experiment: rodent pincher test (mechanical hyperalgesia), CCI model, subcutaneous injection; type: in vivo, rat; conditions: s.c. once a day; 10%, 25% and 100% LGP10-16
# Description: as §1
# The sciatic nerve ligation or chronic constriction injury (CCI) model for as described by Bennett and Xie was used. The sciatic nerve ligation model generates a peripheral nerve injury that causes the appearance of mechanical and thermal hyperalgesia, mechanical allodynia and sometimes signs of spontaneous pain can be observed, by the spontaneous 5 elevation of the paw. All these symptoms appear one week after nerve ligation and can last more than two months. The added value of the model is that each animal can be its own control, since the contralateral paw, not being injured, reflects normal values.
# Mechanical hyperalgesia was tested in the rodent pincher test. The rodent pincher algometer allows calibrated forceps to induce quantifiable mechanical stimulation in the animal. The pressure is applied in the “inter-digital” region. […]
# [5] = system: sciatic nerve ligation or chronic constriction injury (CCI) model; experiment: conditioned place preference (CPP) test, spontaneous pain, CCI model; type: in vivo, rat; conditions: LGP10-16 25%; day 14 and day 21
# Source text: The conditioned place preference (CPP) test assesses emotional responses; it is based on the evaluation of an associated learning behaviour in response to a new aversive environment. The CPP apparatus (70×30×30 cm) is divided into 3 compartments: two test compartments of identical dimensions and a third one considered as a neutral zone, which is narrower. The two test compartments have different visual and tactile characteristics (colour and texture of the walls and floor), so that the animal can differentiate them well and can be isolated by movable doors, so that communication between the three compartments can be allowed or blocked. On the pre-conditioning day, the animal was allowed to roam freely in the three compartments for 30 min, and the time spent in each compartment was measured ([…] that spend more than 60% in one compartment were excluded).
# On conditioning days, animals were administered the drug and confined for 15 min in one of the test compartments (always in the same compartment) in order to associate the drug administration to that area. This conditioning procedure was repeated for each administration of the drug. […] The CPP value is expressed as the difference between the […]. […]
# [6] = system: guinea-pig ileum LMMP; experiment: guinea-pig ileum LMMP preparation, inhibition of contractile activity
# Source text: In a second step, the effect of different concentrations of LGP10-16 on preparations of mouse vas deferens and guinea-pig ileum LMMP was studied. […] In the case of this preparation, after washing, the curve has the same appearance, and the LGP10-16 activity is the same in both curves. To further investigate these differences, the battery of guinea-pig ileum experiments was repeated, this time without washing between the two curves, to see if the effect changed in any way. […] This is a clear synergic effect, as a result of the continued presence of LGP10-16 in the bath.
# [7] = system: Male Wistar rats; experiment: healing and local tolerability after subcutaneous injection in CCI rats; type: in vivo, rat
# Description: as §1
# [8] = maximum concentration 25%, second curve
structure (smiles),measurement,setting,value
"FCOC(C(F)(F)F)C(F)(F)F [LGP10-16, Sevoflurane]",difference with respect to the control (von Frey),"[1]; from the first run at day 7, all doses (10%, 25%, 100%)",statistically significant differences
same,antiallodynic effect (von Frey),"[1]; s.c. once a day, 10%, 25% and 100% LGP10-16",dose- and time-dependent antiallodynic effect
same,recovery of contractile capacity after washing after the first curve,"[2]; 25%, washed after first curve",around 75%
same,Emax,"[2]; Mus musculus, 25%, washed after second curve, read-out: contractile activity after washing after the second curve, of maximum response",50%
same,persistence of the effect after washing,[2]; after changing the nutrient solution,maintained even 90 minutes after washing the preparation
same,inhibition of the contractile response,"[2]; concentrations from 1% to 25% added to the bath, 9 minutes",concentration-dependent inhibition
same,inhibition at the end of the first curve,[2]; maximum concentration 25%,55%
same,inhibition at the end of the second curve,[2]; [8],85%
same,reversibility of the effect,[3]; 25% dilution,reversible
same,effect on nerve fibre firing capacity,"[3]; 25% dilution in nutrient solution, increasing pressure stimulus",inhibition of the nerve fibre firing capacity
same,duration of the effect after a single application,"[3]; 25% dilution, maintained after washing the fibre",up to 90 minutes
same,effect level reached with a 25% solution,[3]; 25% solution,maximum effect was reached
same,antihyperalgesic effect (rodent pincher),[4],dose and time-dependent
same,time spent in the compartment associated with drug administration (CPP),[5],spent more time in the room associated with drug administration
same,effect when the preparation was not washed between the two curves,"[6]; 1% to 25%, without washing, more inhibitory at intermediate doses",somewhat greater
same,recovery of contractile capacity after washing after the first curve,"[6]; 25%, washed after first curve",100%
same,recovery of function after washing after the second curve,"[6]; 25%, washed after second curve",100%
same,inhibition of functional activity,[6]; concentration of 10% and 25%,complete (and reversible) inhibition
same,inhibition at the end of the first curve,"[6]; increasing concentrations 1% to 25%, maximum 25%",100%
same,inhibition at the end of the second curve,[6]; [8],100%
same,effect on healing,"[7]; concentrations of 10% and 25%, s.c.",not negatively affected
same,local adverse findings,"[7]; group 3, 100% LGP10-16, s.c.",skin irritation and blistering
same,side effects in animal models,[7]; summary statement,no relevant side effects

# Source: patent publication US20260183225A1, “PHARMACEUTICAL COMPOSITION FOR TOPICAL ADMINISTRATION COMPRISING A VOLATILE ANAESTHETIC” (LABORATORIOS GEBRO PHARMA, S.A., priority 2022, published 2026)
